Measurements from a compilation of properties of binary mixtures (doi:10.1016/j.molliq.2019.111804).

Assay: xn = mol fraction of the nth substance listed
Details: 101 kPa

CO + CCCC[n+]1ccn(C)c1.[Cl-]
x2 = 0
Details	electrical conductivity [S/m]
293.15 K	0.003
303.15 K	0.004
313.15 K	0.007
323.15 K	0.011

CCCC[n+]1ccn(C)c1.[Cl-] + CO
electrical conductivity [S/m]
Details	x1 = 0.0011	x1 = 0.0022	x1 = 0.0035	x1 = 0.0045	x1 = 0.0056	x1 = 0.0068	x1 = 0.008	x1 = 0.0092	x1 = 0.0104
293.15 K	0.18	0.34	0.48	0.6	0.72	0.83	–	1.02	1.13
303.15 K	0.2	0.38	0.53	–	0.79	0.9	1.01	1.11	1.22
313.15 K	0.23	–	–	0.75	0.87	1.01	1.12	1.23	1.33
323.15 K	0.26	0.48	0.67	–	0.96	1.1	1.24	1.35	1.45
